Assay results: patent US20260042755A1, “GPR6 INVERSE AGONISTS” (MapLight Therapeutics, Inc., priority 2022, published 2026)

Columns and labels:
GPR6 = molecular target: T1, GPR6 (Homo sapiens, UniProt P46095); assay: GPR6 antagonist functional cAMP assay (LANCE Ultra cAMP TR-FRET, CHO cells stably expressing GPR6); type: cell-based; settings: procedure of Example 24
T1 construct: expressed in transfected cells; host or cells: CHO cells
Outline: (§1)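 We measure cAMP by TR-FRET (665 nm) in cells held in glucose-containing Krebs-Ringer buffer with BSA and a PDE inhibitor, after a 45 min, 37 °C compound incubation. IC50s derive from a four-parameter logistic fit.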

GPR3 = molecular target: T2, GPR3 (Homo sapiens, UniProt P46089); assay: GPR3 antagonist functional cAMP assay (LANCE Ultra cAMP TR-FRET, CHO cells stably expressing GPR3); type: cell-based; settings: procedure of Example 24
T2 construct: expressed in transfected cells; host or cells: CHO cells
T2 sequence (P46089 whole entry, species assumed): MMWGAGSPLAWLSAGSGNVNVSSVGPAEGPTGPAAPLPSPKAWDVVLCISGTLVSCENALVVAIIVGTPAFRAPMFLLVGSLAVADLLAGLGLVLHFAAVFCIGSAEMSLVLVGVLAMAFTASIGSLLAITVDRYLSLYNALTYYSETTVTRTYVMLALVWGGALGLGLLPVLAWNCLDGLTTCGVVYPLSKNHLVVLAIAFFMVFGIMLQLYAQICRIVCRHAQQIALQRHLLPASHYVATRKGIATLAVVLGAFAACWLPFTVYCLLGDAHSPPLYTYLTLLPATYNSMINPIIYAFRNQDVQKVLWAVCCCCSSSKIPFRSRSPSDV
Outline: as §1

T1 sequence (P46095 whole entry): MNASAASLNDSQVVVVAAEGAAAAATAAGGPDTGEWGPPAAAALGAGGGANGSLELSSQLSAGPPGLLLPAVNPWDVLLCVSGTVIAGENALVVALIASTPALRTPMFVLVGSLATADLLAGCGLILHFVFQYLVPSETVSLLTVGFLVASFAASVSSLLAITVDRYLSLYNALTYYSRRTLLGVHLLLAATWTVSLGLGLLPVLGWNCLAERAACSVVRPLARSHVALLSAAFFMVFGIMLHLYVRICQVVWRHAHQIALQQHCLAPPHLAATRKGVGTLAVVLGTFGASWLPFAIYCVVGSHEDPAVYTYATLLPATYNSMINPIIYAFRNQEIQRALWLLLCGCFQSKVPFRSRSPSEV

Structure (SMILES) | IC50 (GPR6) [nM] | IC50 (GPR3) [nM]
CCn1cc(-c2nc3c(nc2N2CCC(Oc4ccc(F)cc4F)CC2)CCN(S(=O)(=O)CC)C3)cn1 [Compound 267, 4-(2,4-difluorophenoxy)-1-[6-(ethanesulfonyl)-3-(1-ethyl-1H-pyrazol-4-yl)-5H,6H,7H,8H-pyrido[3,4-b]pyrazin-2-yl]piperidine] | 100 to 1000 | 1000 to 30000
Cn1cc(-c2nc3cc(C(O)C(C)(C)O)ncc3nc2N2CCN(Cc3ccc(F)cc3F)CC2)cn1 (stereo not shown) [Compound 268, 1-(3-{4-[(2,4-difluorophenyl)methyl]piperazin-1-yl}-2-(1-methyl-1H-pyrazol-4-yl)pyrido[3,4-b]pyrazin-7-yl)-2-methylpropane-1,2-diol] | < 100 | 1000 to 30000
CCn1cc(-c2nc3c(nc2N2CCC(Oc4ccc(F)cc4F)CC2)CCN(S(C)(=O)=O)C3)cn1 [Compound 269, 4-(2,4-difluorophenoxy)-1-[3-(1-ethyl-1H-pyrazol-4-yl)-6-methanesulfonyl-5H,6H,7H,8H-pyrido[3,4-b]pyrazin-2-yl]piperidine] | < 100 | 1000 to 30000
CCn1cc(-c2nc3cnc(C(O)C(C)(C)O)cc3nc2N2CCN(Cc3ccc(F)cc3F)CC2)cn1 (stereo not shown) [Compound 270, 1-(2-{4-[(2,4-difluorophenyl)methyl]piperazin-1-yl}-3-(1-ethyl-1H-pyrazol-4-yl)pyrido[3,4-b]pyrazin-7-yl)-2-methylpropane-1,2-diol] | 100 to 1000 | 1000 to 30000
CCn1cc(-c2nc3c(nc2N2CCC(Oc4ccc(F)cc4F)CC2)CCN(C(=O)OC)C3)cn1 [Compound 273, methyl 2-[4-(2,4-difluorophenoxy)piperidin-1-yl]-3-(1-ethyl-1H-pyrazol-4-yl)-5H,6H,7H,8H-pyrido[3,4-b]pyrazine-6-carboxylate] | < 100 | 1000 to 30000
CCn1cc(-c2nc3c(nc2N2CCC(Oc4ccc(F)cc4F)CC2)CCN(C#N)C3)cn1 [Compound 274, 2-(4-(2,4-difluorophenoxy)piperidin-1-yl)-3-(1-ethyl-1H-pyrazol-4-yl)-7,8-dihydropyrido[3,4-b]pyrazine-6(5H)-carbonitrile] | < 100 | 1000 to 30000
CCn1cc(-c2nc3c(nc2N2CCC(Oc4ccc(F)cc4F)CC2)CCN(C(=O)COC)C3)cn1 [Compound 275, 1-{2-[4-(2,4-difluorophenoxy)piperidin-1-yl]-3-(1-ethyl-1H-pyrazol-4-yl)-5H,6H,7H,8H-pyrido[3,4-b]pyrazin-6-yl}-2-methoxyethan-1-one] | < 100 | 100 to 1000
CCn1cc(-c2nc3c(nc2N2CCC(Oc4ccc(F)cc4F)CC2)CCN(C(=O)C(C)(C)O)C3)cn1 [Compound 276, 1-{2-[4-(2,4-difluorophenoxy)piperidin-1-yl]-3-(1-ethyl-1H-pyrazol-4-yl)-5H,6H,7H,8H-pyrido [3,4-b]pyrazin-6-yl}-2-hydroxy-2-methylpropan-1-one] | < 100 | 100 to 1000
Cn1cc(-c2nc3cnc(N)cc3nc2N2CCC(Oc3ccc(F)cc3F)CC2)cn1 [Compound 277, 2-[4-(2,4-difluorophenoxy)piperidin-1-yl]-3-(1-methyl-1H-pyrazol-4-yl)pyrido[3,4-b]pyrazin-7-amine] | 100 to 1000 | 1000 to 30000
CC(=O)OC1CCCN(c2nc3c(nc2-c2cnn(C)c2)CN(Cc2ccccc2)CC3)C1 (stereo not shown) [Compound 278, 1-[6-benzyl-3-(1-methyl-1H-pyrazol-4-yl)-5H,6H,7H,8H-pyrido[3,4-b]pyrazin-2-yl]piperidin-3-yl acetate] | 1000 to 30000 | 1000 to 30000
COC1CCC(c2nc3c(nc2N2CCC(Oc4ccc(F)cc4F)CC2)CCN(C(C)=O)C3)C1 (stereo not shown) [Compound 279, 1-{2-[4-(2,4-difluorophenoxy)piperidin-1-yl]-3-(3-methoxycyclopentyl)-5H,6H,7H,8H-pyrido[3,4-b]pyrazin-6-yl}ethan-1-one] | 1000 to 30000 | 1000 to 30000
